The nature of the series: Solubility observed when preparing compounds for the cytotoxicity experiments. The following applies: reason for exclusion from cytotoxicity experiments; stocks 1 mM in 100% DMSO. Type of series: physicochemical. How it is done: HEK293 cells were plated at 70% density in 24-well plates at 37 °C. All compounds were first dissolved in 100% DMSO to give 1 mM as a stock for the following dilutions. […] Further, the cell viability was measured by the 3-(4,5-Dimethyl-2-thiazolyl)-2,5-diphenyl-2H-tetrazolium bromide (MTT) assay. After incubating for 1h, the reaction product was read at 570 nm using a Synergy HT microplate reader (BioTek Instruments, Winooski, VT, USA).

In PMC9000886, “Protection-Free Strategy for the Synthesis of Boro-Depsipeptides in Aqueous Media under Microwave-Assisted Conditions” (Molecules, 2022) one finds solubility data, which are given here for 5 compounds.

SMILES strings stand for the structures.

Turning to `CC(C)(C)NC(=O)COC(=O)c1ccc(B(O)O)c([N+](=O)[O-])c1` [Compound 5l, (4-((2-(Tert-Butylamino)-2-Oxoethoxy)carbonyl)-2-Nitrophenyl)boronic Acid], the solubility result is listed as “poor solubility”.

Regarding `CC(C)(C)NC(=O)C(OC(=O)c1ccc(B(O)O)cc1)c1ccnc2ccccc12` (centres unmarked) [Compound 5i, (4-((2-(Tert-Butylamino)-2-Oxo-1-(Quinolin-4-yl)ethoxy)carbonyl)phenyl)boronic Acid], the solubility result is “poor solubility”.

Take `CC(C)C(=O)OC(C(=O)NC(C)(C)C)c1ccc(F)c(B(O)O)c1` (centres unmarked) [Compound 4e, (5-(2-(Tert-Butylamino)-1-(Isobutyryloxy)-2-Oxoethyl)-2-Fluorophenyl)boronic Acid]: the solubility entry is reported as “poor solubility”.

Consider `CC(C)(C)NC(=O)COC(=O)c1ccc(B(O)O)cc1` [Compound 5a, (4-((2-(Tert-Butylamino)-2-Oxoethoxy)carbonyl)phenyl)boronic Acid], for which the solubility entry was “poor solubility”.

Regarding `CC(C)(C)NC(=O)C(OC(=O)c1ccc(B(O)O)cc1)c1ccccc1F` (centres unmarked) [Compound 5h, (4-((2-(Tert-Butylamino)-1-(2-Fluorophenyl)-2-Oxoethoxy)carbonyl)phenyl)boronic Acid], the solubility entry is “poor solubility”.
